Reference: patent EP3697386B1, “LIQUID COMPOSITIONS FOR PERORAL USE COMPRISING PHOSPHATIDYLGLYCEROL DERIVATIVES AND T[…] TREATING CARDIAC CHANN[…] BY PHARMACOLOGICAL AGENTS” (Signpath Pharma, Inc., priority 2017, dated 2019)

Target: hERG (Homo sapiens, UniProt Q12809)
Experiment: Whole-cell patch-clamp of IKr hERG tail current: protective effect of lipids against hERG inhibition by Nilotinib
Conditions: for activity at 5 min: human, herg hek293 cells

hERG, sequence (Q12809 whole entry): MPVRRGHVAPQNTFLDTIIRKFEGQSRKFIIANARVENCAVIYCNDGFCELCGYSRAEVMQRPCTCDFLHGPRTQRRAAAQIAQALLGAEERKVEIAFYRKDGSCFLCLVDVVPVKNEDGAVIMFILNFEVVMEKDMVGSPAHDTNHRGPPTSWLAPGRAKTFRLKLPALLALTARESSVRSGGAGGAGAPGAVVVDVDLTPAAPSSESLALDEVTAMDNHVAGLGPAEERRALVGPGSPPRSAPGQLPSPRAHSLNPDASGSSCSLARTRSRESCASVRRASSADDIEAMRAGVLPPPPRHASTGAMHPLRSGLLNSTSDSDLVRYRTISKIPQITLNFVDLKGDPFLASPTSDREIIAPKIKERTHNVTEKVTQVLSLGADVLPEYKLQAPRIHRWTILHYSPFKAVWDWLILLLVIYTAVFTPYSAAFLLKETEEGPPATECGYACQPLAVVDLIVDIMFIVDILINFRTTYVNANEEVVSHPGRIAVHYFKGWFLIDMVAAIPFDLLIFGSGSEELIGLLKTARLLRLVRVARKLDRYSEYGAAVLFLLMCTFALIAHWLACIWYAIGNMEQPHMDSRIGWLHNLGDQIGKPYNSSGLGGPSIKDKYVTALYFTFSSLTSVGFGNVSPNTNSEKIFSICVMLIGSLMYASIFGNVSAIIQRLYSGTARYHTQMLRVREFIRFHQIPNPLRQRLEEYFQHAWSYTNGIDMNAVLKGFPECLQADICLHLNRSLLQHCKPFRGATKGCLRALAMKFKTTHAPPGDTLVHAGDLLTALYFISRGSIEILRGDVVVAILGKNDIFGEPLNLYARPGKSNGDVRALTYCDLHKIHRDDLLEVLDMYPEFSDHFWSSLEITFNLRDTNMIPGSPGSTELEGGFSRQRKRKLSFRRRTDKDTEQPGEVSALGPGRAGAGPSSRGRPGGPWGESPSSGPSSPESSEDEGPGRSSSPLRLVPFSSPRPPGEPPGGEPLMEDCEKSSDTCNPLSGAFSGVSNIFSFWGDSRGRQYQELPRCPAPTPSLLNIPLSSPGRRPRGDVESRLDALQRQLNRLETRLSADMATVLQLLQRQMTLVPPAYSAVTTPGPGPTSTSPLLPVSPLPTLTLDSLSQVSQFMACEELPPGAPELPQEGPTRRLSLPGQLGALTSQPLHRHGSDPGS

Q: For “12-Mysteroyl-2-Hydroxy-sn-Glycero-3-[Phospho-rac-(glycerol)] [DMPG]”, which “Normalized Current Density” value (lipid alone in aqueous solution, 5 minutes exposure, hERG-transfected HEK 293 cells, tail current at -55 mV, baseline = 1.000) is on record?
A: Its value is 0.800.

Q: Which activity at 5 min does the source give for `CCCCCCCCCCCCCC(=O)OC[C@H](COP(=O)([O-])OCC[N+](C)(C)C)OC(=O)CCCCCCCCCCCCC` [DMPC, 1,2-dimyristoyl-sn-glycero-3-phosphocholine] here?
A: The activity at 5 min was 106%.

Q: What about the activity at 5 min (Normalized Current Density, lipid alone in aqueous solution, 5 minutes exposure, hERG-transfected HEK 293 cells, tail current at -55 mV, baseline = 1.000) of the same compound?
A: The activity at 5 min was 86.3%.
